Experimental data as given in patent US8952177B2 (Janssen Pharmaceutica NV, priority 2013, dated 2015).
Structures can show the parent of a compound that is named as a salt.

Key:
human FLAP = human FLAP (Homo sapiens (Human), UniProt P20292); assay: FLAP binding assay (HTRF format); details: human FLAP-containing Sf-9 membranes, 25 nM HTRF ligand, 2 h; average of runs; read-out: FLAP Binding wild type HTRF Ki
Protocol: The ability of the compounds of the present invention to treat a FLAP-mediated disease and/or disorder, or associated symptoms or complications thereof, was determined using the following procedures. Binding assay data represent the average value obtained from two different assay plates, with samples run in duplicate on each plate. Human whole blood assay data represent a single replicate on an assay plate using whole blood from at least one healthy donor.
The assay below is used to test the modulatory activity of compounds against FLAP. Human and mouse FLAP-encoding DNA was amplified by polymerase chain reaction and cloned into pFastBacl (Invitrogen) with a NH2-terminal 6-His tag for expression in Spodoptera frugiperda (Sf-9) cells. FLAP-containing membranes were prepared as was a FITC-labeled FLAP modulator (3-(3-(tert-butylthio)-1-(4-chlorobenzyl)-5-(quinolin-2-ylmethoxy)-1H-indol-2-yl)-2,2-dimethylpropanoic acid). The FLAP binding assay is performed in HTRF format (homogeneous time resolved fluorescence). […] The reaction is allowed to proceed for two hours after which the plate is read on an Envision plate reader in HTRF mode. Data are expressed as a HTRF ratio.
For human FLAP binding assays, data are analyzed with 3DX Explorer software. […] For analysis, data from multiple runs are averaged and each compound may be tested in 2 to 20 runs. Each run comprises two plates and each plate includes duplicates. Data from each plate is averaged and data are imported into 3DX. The data from multiple runs are aggregated as the average of duplicates of the calculated ratios in order to calculate Ki and IC50 values. Numbers in parentheses are the number of runs for the assay.

[1] = test system: leukotriene pathway in human whole blood (LTB4); assay: Human whole blood assay (LTB4 after calcium ionophore A23187 stimulation); assay type: cell-based; details: Homo sapiens, human whole blood diluted 1:1 in RPMI, 15 min pre-incubation, A23187 7 μg/mL for 30 min at 37° Celsius
Method in brief: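 Heparinised human whole blood, diluted 1:1 in RPMI, was preincubated with compound for 15 min at 37° C. before stimulation with A23187 (7 μg/mL) for 30 min. Plasma LTB4 was measured by immunoassay kit and IC50 obtained by 4-parameter fit; single replicate per plate, blood from at least one donor.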

human FLAP, sequence (P20292 whole entry): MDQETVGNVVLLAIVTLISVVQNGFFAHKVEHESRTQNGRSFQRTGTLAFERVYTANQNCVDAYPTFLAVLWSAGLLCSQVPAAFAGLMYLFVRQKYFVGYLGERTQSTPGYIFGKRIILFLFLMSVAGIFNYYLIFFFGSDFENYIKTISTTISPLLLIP

| Ki (human FLAP) | IC50 [1] | SMILES |
| --- | --- | --- |
| 0.64 nM | 480 nM | CCC(CC)(Cc1nc2ccc(OCc3ncc(C)cc3F)cc2n1Cc1ccc(Br)cc1)C(=O)O [Example 136, 2-({1-(4-Bromobenzyl)-6-[(3-fluoro-5-methylpyridin-2-yl)methoxy]-1H-benzimidazol-2-yl}methyl)-2-ethylbutanoic acid] |
| 0.42 nM | 110 nM | Cc1cnc(COc2ccc3nc([C@H]4CCCC[C@H]4C(=O)O)n(Cc4ccc(N5CCC(F)CC5)cc4)c3c2)c(F)c1 (relative stereo) [Example 176, (1R*,2S*)-2-{6-[(3-Fluoro-5-methylpyridin-2-yl)methoxy]-1-[4-(4-fluoropiperidin-1-yl)benzyl]-1H-benzimidazol-2-yl}cyclohexanecarboxylic acid] |
| 5.2 nM | 48 nM | CCC(CC)(Cc1nc2ccc(OCc3ncc(C)cc3F)cc2n1Cc1ccc(N2CCC(C)CC2)cc1F)C(=O)O [Example 181, 2-Ethyl-2-({1-[2-fluoro-4-(4-methylpiperidin-1-yl)benzyl]-6-[(3-fluoro-5-methylpyridin-2-yl)methoxy]-1H-benzimidazol-2-yl}methyl)butanoic acid] |
| 32 nM | 3610 nM | Cn1ccc(COc2ccc3nc([C@@H]4CCCC[C@@H]4C(=O)O)n(Cc4ccc(N5CC(F)(F)C5)cc4)c3c2)n1 (racemic) [Example 89, racemic cis-2-{1-[4-(3,3-Difluoroazetidin-1-yl)benzyl]-6-[(1-methyl-1H-pyrazol-3-yl)methoxy]-1H-benzimidazol-2-yl}cyclohexanecarboxylic acid] |
| 7.3 nM | 360 nM | CCC(CC)(Cc1nc2ccc(OCc3ccn(C)n3)cc2n1Cc1ccc(-c2ccc(C(F)(F)F)cc2)cc1F)C(=O)O [Example 187] |
| 7.9 nM | 170 nM | Cn1cc(Cl)c(COc2ccc3nc([C@@H]4CCCC[C@@H]4C(=O)O)n(Cc4ccc(N5CCCCC5)cc4)c3c2)n1 (racemic) [Example 82, racemic cis-2-{6-[(4-Chloro-1-methyl-1H-pyrazol-3-yl)methoxy]-1-(4-piperidin-1-ylbenzyl)-1H-benzimidazol-2-yl}cyclohexanecarboxylic acid] |
| 21 nM | 900 nM | Cc1ccc(COc2ccc3nc([C@@H]4CCCC[C@@H]4C(=O)O)n(Cc4ccc(OC(F)(F)F)cc4Cl)c3c2)nc1 (racemic) [Example 101, racemic cis-2-{1-[2-Chloro-4-(trifluoromethoxy)benzyl]-6-[(5-methylpyridin-2-yl)methoxy]-1H-benzimidazol-2-yl}cyclohexanecarboxylic acid as the HCl salt] |
| 24 nM | 1660 nM | CCC(CC)(Cc1nc2ccc(OCc3ccc(C)cn3)cc2n1Cc1ccc(OC(F)(F)F)cc1)C(=O)O [Example 22, 2-Ethyl-2-({6-[(5-methylpyridin-2-yl)methoxy]-1-[4-(trifluoromethoxy)benzyl]-1H-benzimidazol-2-yl}methyl)butanoic acid] |
| 5.9 nM | 190 nM | COc1cc(OC(F)(F)F)ccc1Cn1c([C@H]2CCCC[C@H]2C(=O)O)nc2ccc(OCc3ccn(C)n3)cc21 (racemic) [Example 84, racemic cis-2-{1-[2-Methoxy-4-(trifluoromethoxy)benzyl]-6-[(1-methyl-1H-pyrazol-3-yl)methoxy]-1H-benzimidazol-2-yl}cyclohexanecarboxylic acid] |
| 1.4 nM | 140 nM | Cn1ccc(COc2ccc3nc([C@@H]4CCCC[C@@H]4C(=O)O)n(Cc4cccc(-c5ccc(C(F)(F)F)cc5)c4)c3c2)n1 (racemic) [Example 150, racemic cis-2-(6-[(1-Methyl-1H-pyrazol-3-yl)methoxy]-1-{[4′-(trifluoromethyl)biphenyl-3-yl]methyl}-1H-benzimidazol-2-yl)cyclohexanecarboxylic acid] |

Continued, compound first:

| SMILES | Ki (human FLAP) | IC50 [1] |
| --- | --- | --- |
| Cc1ccc(COc2ccc3nc([C@H]4CCCC[C@H]4C(=O)O)n(Cc4ccc(C#N)cc4)c3c2)nc1 (stereo in doubt) [Example 39, (1R*,2S*)-2-{1-(4-Cyanobenzyl)-6-[(5-methylpyridin-2-yl)methoxy]-1H-benzimidazol-2-yl}cyclohexanecarboxylic acid] | 10 nM | 1070 nM |
| Cc1cnc(COc2ccc3nc(CC(C)(C)C(=O)O)n(Cc4c(F)cc(Br)cc4F)c3c2)c(F)c1 [Example 130, 3-{1-(4-Bromo-2,6-difluorobenzyl)-6-[(3-fluoro-5-methylpyridin-2-yl)methoxy]-1H-benzimidazol-2-yl}-2,2-dimethylpropanoic acid] | 15 nM | 840 nM |
| CCC(CC)(Cc1nc2c(F)cc(OCc3ccc(C)cn3)cc2n1Cc1ccc(C)cc1)C(=O)O [Example 71, 2-Ethyl-2-({4-fluoro-1-(4-methylbenzyl)-6-[(5-methylpyridin-2-yl)methoxy]-1H-benzimidazol-2-yl}methyl)butanoic acid as the TFA salt] | 49 nM | 3350 nM |
| Cc1ccc(COc2ccc3nc([C@H]4CCCC[C@H]4C(=O)O)n(Cc4ccc(-c5ncc(Cl)cn5)cc4)c3c2)nc1 (racemic) [Example 80, racemic cis-2-{1-[4-(5-Chloropyrimidin-2-yl)benzyl]-6-[(5-methylpyridin-2-yl)methoxy]-1H-benzimidazol-2-yl}cyclohexanecarboxylic acid] | 3.3 nM | 300 nM |
| Cc1cnc(COc2ccc3nc(CC(C)(C)C(=O)O)n(Cc4ccc(Br)cc4)c3c2)c(F)c1 [Example 128, 3-{1-(4-Bromobenzyl)-6-[(3-fluoro-5-methylpyridin-2-yl)methoxy]-1H-benzimidazol-2-yl}-2,2-dimethylpropanoic acid] | 8.5 nM | 1320 nM |
| Cc1ccc(Cn2c([C@@H]3[C@H](C(=O)O)C3(C)C)nc3ccc(OCc4ccc(C)cn4)cc32)cc1 (racemic) [Example 121, racemic cis-2,2-Dimethyl-3-{1-(4-methylbenzyl)-6-[(5-methylpyridin-2-yl)methoxy]-1H-benzimidazol-2-yl}cyclopropanecarboxylic acid] | 150 nM | 2110 nM |
| Cc1cc(OC(F)(F)F)ccc1Cn1c([C@@H]2CCCC[C@@H]2C(=O)O)nc2ccc(OCc3ccn(C)n3)cc21 (racemic) [Example 99, racemic cis-2-{6-[(1-Methyl-1H-pyrazol-3-yl)methoxy]-1-[2-methyl-4-(trifluoromethoxy)benzyl]-1H-benzimidazol-2-yl}cyclohexanecarboxylic acid] | 18 nM | 1060 nM |
| Cc1ccc(COc2ccc3nc([C@@H]4CCCC[C@@H]4C(=O)O)n(Cc4ccc(OC(F)(F)F)cc4C)c3c2)nc1 (racemic) [Example 100, racemic cis-2-{6-[(5-Methylpyridin-2-yl)methoxy]-1-[2-methyl-4-(trifluoromethoxy)benzyl]-1H-benzimidazol-2-yl}cyclohexanecarboxylic acid] | 19 nM | 2540 nM |
| Cc1ccc(Cn2c(C3[C@@H](C(=O)O)C3(C)C)nc3c(F)cc(OCc4ccc(C)cn4)cc32)cc1 (mixture of isomers) [Example 64, racemic cis-3-{4-Fluoro-1-(4-methylbenzyl)-6-[(5-methylpyridin-2-yl)methoxy]-1H-benzimidazol-2-yl}-2,2-dimethylcyclopropanecarboxylic acid as the TFA salt] | 290 nM | 3280 nM |
